Measurements reported in patent publication US20230098254A1, “SCUTELLARIAE RADIX COMPOUNDS AND USE THEREOF FOR INHIBITING OXIDATIVE PHOSPHORYLATION PATHWAY OF MITOCHONDRIA” (priority 2020, published 2023).

Tests used:
22RV1 = assay: Cell viability CellTiter-Glo, 22RV1; type: cell-based; settings: Homo sapiens; 22RV1, prostate cancer
Experimental: (§1) Cell viability was measured by using the Promega CellTiter-Glo kit, the kit reflected cell viability by directly measuring intracellular ATP content. Different cancer cells were cultured in culture medium, and the 50% inhibitory concentration IC50 of the compound SJ2858 was measured by Promega CellTiter-Glo kit. The name source and culture condition of each tumor cell line were as follows:
Cell line 22RV1 (ATCC, No. CRL-2505) was cultured in RPMI1640 medium containing 10% fetal bovine serum (+P/S);

NCI-H1155 = assay: Cell viability CellTiter-Glo, NCI-H1155; type: cell-based; settings: Homo sapiens; NCI-H1155, lung cancer
Experimental: as §1
Cell line NCI-H1155 (ATCC, No. CRL-5818) was cultured in serum-free ACL-4 medium (+P/S);

Question: How did the IC50 (22RV1) turn out when `O=c1cc(-c2ccccc2)oc2cc(O)c(O)c(O)c12` [Compound SJ2858, baicalein] was run?
Answer: 25.9 µM

Question: And the IC50 (NCI-H1155)?
Answer: 19.6 µM
